In patent publication US10925831B2, “Liposomal formulations of platinum-acridine anticancer agents and methods thereof” (Wake Forest University, priority 2017, dated 2021):

Tested on: A549 xenografts
Assay: A549 xenograft study
Type: in vivo, mice
Settings: P8-A1 q4dx4 i.v. 0.4 mg/kg; Lipo4*-P8-A1 q4dx11 i.v. 0.4 mg/kg; cisplatin q4dx11 i.p. 4.0 mg/kg; n=8
Protocol: FIGS. 10A, 10B, 10C and 10D illustrate evaluation of P8-A1 and its liposomal formulation, Lipo4-P8-A1, in a A549 xenograft model in mice. FIGS. 10 A-B illustrate tumor volumes and mouse weights monitored for Lipo4-P8-A1 and control, administered q4dx4, i.v. @ 0.4 mg/kg, n=10. Tumor growth inhibition is 65% on day 41, P<0.05. Mouse weight loss is 22% on day 41, potentially reversible. No other toxicity symptoms noted. FIGS. 10 C-D illustrate tumor volumes and mouse weights monitored for P8-A1 (q4dx4, i.v. @ 0.4 mg/kg), Lipo4*-P8-A1, (q4dx11, i.v. @ 0.4 mg/kg), cisplatin (q4dx11, i.p. @ 4.0 mg/kg), and control (q4dx11, i.v.). A total of 8 mice per group were treated (n=8). See text for discussion. […]
A549 Xenograft study. […] Animal weights and tumor volumes were measured and recorded throughout the entire study after the first dose was administered. Tumor volumes were determined using the formula: V (mm^3)=d^2×D/2, where d and D are the shortest and longest dimension of the tumor, respectively, and are reported as the sum of both tumors for each test animal. […] The concentration of Pt in selected tissues was determined by quadrupole inductively-coupled mass spectrometry (ICP-MS) on a Thermo ICP-MS instrument at the Analytic Chemistry Service facility of Research Triangle Institute, Research Triangle Park, N.C. […]

N.N.[Cl][Pt][Cl] [Cisplatin, cisplatin]
antitumor efficacy, growth inhibition (Study B): does not show efficacy
